What all share (test): relative viability (nuclei count vs DMSO), 5 days (fraction); higher = more cells survive
Compound in the assay “Bleomycin + Olaparib”: CC1=C(N=C(N=C1N)[C@H](CC(=O)N)NC[C@@H](C(=O)N)N)C(=O)N[C@@H]([C@H](C2=CN=CN2)OC3C(C(C(C(O3)CO)O)O)OC4C(C(C(C(O4)CO)O)OC(=O)N)O)C(=O)N[C@H](C)[C@H]([C@H](C)C(=O)N[C@@H]([C@@H](C)O)C(=O)NCCC5=NC(=CS5)C6=NC(=CS6)C(=O)NCCC[S+](C)C)O [Bleomycin] + O=C(c1cc(Cc2n[nH]c(=O)c3ccccc23)ccc1F)N1CCN(C(=O)C2CC2)CC1 [Olaparib] (partner 8 µM)
The following applies: main component drawn. The procedure, abridged:
(§1)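 Each reported value is a median over duplicate plates. It expresses relative viability: treated-well nuclei count divided by vehicle-well nuclei count. Lung cancer cell lines in 1536-well plates were dosed by pin tool a day after seeding, alone with one drug or with a fixed anchor-drug dose plus five library-drug doses (not always all listed) in √10 steps, and nuclei were counted after 5 days.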

Compound in the assay “Etoposide + Dasatinib”: COc1cc([C@@H]2c3cc4c(cc3[C@@H](O[C@@H]3O[C@@H]5CO[C@@H](C)O[C@H]5[C@H](O)[C@H]3O)[C@H]3COC(=O)[C@H]23)OCO4)cc(OC)c1O [Etoposide] + Cc1nc(Nc2ncc(C(=O)Nc3c(C)cccc3Cl)s2)cc(N2CCN(CCO)CC2)n1 [Dasatinib] (partner 0.075 µM)
The procedure, abridged: as §1

Compound in the assay “Bleomycin + Pictilisib”: CC1=C(N=C(N=C1N)[C@H](CC(=O)N)NC[C@@H](C(=O)N)N)C(=O)N[C@@H]([C@H](C2=CN=CN2)OC3C(C(C(C(O3)CO)O)O)OC4C(C(C(C(O4)CO)O)OC(=O)N)O)C(=O)N[C@H](C)[C@H]([C@H](C)C(=O)N[C@@H]([C@@H](C)O)C(=O)NCCC5=NC(=CS5)C6=NC(=CS6)C(=O)NCCC[S+](C)C)O [Bleomycin] + CS(=O)(=O)N1CCN(Cc2cc3nc(-c4cccc5[nH]ncc45)nc(N4CCOCC4)c3s2)CC1 [Pictilisib] (partner 1 µM)
The following applies: main component drawn. Summed up: as §1

Compound in the assay “Bleomycin + Bortezomib”: CC1=C(N=C(N=C1N)[C@H](CC(=O)N)NC[C@@H](C(=O)N)N)C(=O)N[C@@H]([C@H](C2=CN=CN2)OC3C(C(C(C(O3)CO)O)O)OC4C(C(C(C(O4)CO)O)OC(=O)N)O)C(=O)N[C@H](C)[C@H]([C@H](C)C(=O)N[C@@H]([C@@H](C)O)C(=O)NCCC5=NC(=CS5)C6=NC(=CS6)C(=O)NCCC[S+](C)C)O [Bleomycin] + CC(C)C[C@H](NC(=O)[C@H](Cc1ccccc1)NC(=O)c1cnccn1)B(O)O [Bortezomib] (partner 0.002 µM)
The following applies: main component drawn. The procedure, abridged:
as §1

Consider NCI-H1793, for which the relative viability with Bleomycin + Olaparib (first compound 0.01 µM) turned out to be 0.845; with Bleomycin + Olaparib (first compound 0.03162 µM), 0.675; with Bleomycin + Olaparib (first compound 0.1 µM) it was 0.589; with Bleomycin + Olaparib (first compound 0.3162 µM), 0.191; with Bleomycin + Olaparib (first compound 1 µM), 0.195; with Etoposide + Dasatinib (first compound 0.01 µM), 0.402. In addition, the relative viability came out at 0.348 in the assay with Etoposide + Dasatinib (first compound 0.03162 µM); 0.419 in the assay with Etoposide + Dasatinib (first compound 0.3162 µM); 0.214 with Etoposide + Dasatinib (first compound 1 µM); 0.398 in the assay with Bleomycin + Pictilisib (first compound 0.01 µM); 0.314 with Bleomycin + Pictilisib (first compound 0.03162 µM); 0.312 with Bleomycin + Pictilisib (first compound 0.1 µM). The relative viability was determined as 0.233 with Bleomycin + Pictilisib (first compound 0.3162 µM) and 0.169 with Bleomycin + Pictilisib (first compound 1 µM).
In the case of NCI-H1299, the relative viability in the assay with Bleomycin + Bortezomib (first compound 0.01 µM) turned out to be 0.963; in the assay with Bleomycin + Bortezomib (first compound 0.03162 µM), 0.994; in the assay with Bleomycin + Bortezomib (first compound 0.1 µM) it was 0.95; in the assay with Bleomycin + Bortezomib (first compound 0.3162 µM), 0.435; with Bleomycin + Bortezomib (first compound 1 µM), 0.412; with Bleomycin + Olaparib (first compound 0.01 µM) it was 0.819. Further, the relative viability amounted to 0.904 in the assay with Bleomycin + Olaparib (first compound 0.03162 µM); 0.681 with Bleomycin + Olaparib (first compound 0.1 µM); 0.346 in the assay with Bleomycin + Olaparib (first compound 0.3162 µM); 0.252 with Bleomycin + Olaparib (first compound 1 µM); 0.65 in the assay with Bleomycin + Pictilisib (first compound 0.01 µM); 0.571 in the assay with Bleomycin + Pictilisib (first compound 0.03162 µM). Also, the relative viability is 0.367 with Bleomycin + Pictilisib (first compound 0.1 µM), 0.149 in the assay with Bleomycin + Pictilisib (first compound 0.3162 µM) and 0.154 with Bleomycin + Pictilisib (first compound 1 µM).
Turning to NCI-H358, the relative viability was determined as 0.475 in the assay with Bleomycin + Olaparib (first compound 0.01 µM); 0.713 with Bleomycin + Olaparib (first compound 0.03162 µM); 0.657 with Bleomycin + Olaparib (first compound 0.1 µM); 0.294 with Bleomycin + Olaparib (first compound 0.3162 µM); 0.227 with Bleomycin + Olaparib (first compound 1 µM); 0.166 with Etoposide + Dasatinib (first compound 0.01 µM). Besides, the relative viability with Etoposide + Dasatinib (first compound 0.03162 µM) is 0.179; with Etoposide + Dasatinib (first compound 0.1 µM), 0.112; with Etoposide + Dasatinib (first compound 0.3162 µM), 0.149; in the assay with Etoposide + Dasatinib (first compound 1 µM), 0.106; with Bleomycin + Pictilisib (first compound 0.01 µM), 0.349; with Bleomycin + Pictilisib (first compound 0.03162 µM), 0.355. For the same cell line, the results for the relative viability with Bleomycin + Pictilisib (first compound 0.1 µM), with Bleomycin + Pictilisib (first compound 0.3162 µM) and with Bleomycin + Pictilisib (first compound 1 µM) were 0.34, 0.233 and 0.228, respectively.
For NCI-H1395, the relative viability in the assay with Bleomycin + Olaparib (first compound 0.01 µM) stood at 0.434; with Bleomycin + Olaparib (first compound 0.03162 µM), 0.448; in the assay with Bleomycin + Olaparib (first compound 0.1 µM), 0.406; in the assay with Bleomycin + Olaparib (first compound 0.3162 µM), 0.35; with Bleomycin + Olaparib (first compound 1 µM), 0.377; with Etoposide + Dasatinib (first compound 0.01 µM), 0.422. For the same cell line, the relative viability was found to be 0.414 with Etoposide + Dasatinib (first compound 0.03162 µM); 0.368 with Etoposide + Dasatinib (first compound 0.1 µM); 0.406 with Etoposide + Dasatinib (first compound 0.3162 µM); 0.438 with Etoposide + Dasatinib (first compound 1 µM); 0.579 in the assay with Bleomycin + Pictilisib (first compound 0.01 µM); 0.6 in the assay with Bleomycin + Pictilisib (first compound 0.03162 µM). For the same cell line, the results for the relative viability in the assay with Bleomycin + Pictilisib (first compound 0.1 µM), with Bleomycin + Pictilisib (first compound 0.3162 µM) and with Bleomycin + Pictilisib (first compound 1 µM) were 0.476, 0.686 and 0.489, respectively.
NCI-H522: the relative viability with Bleomycin + Olaparib (first compound 0.01 µM) was determined as 0.498; with Bleomycin + Olaparib (first compound 0.03162 µM), 0.627; with Bleomycin + Olaparib (first compound 0.1 µM) it was 0.625; with Bleomycin + Olaparib (first compound 0.3162 µM), 0.404; with Bleomycin + Olaparib (first compound 1 µM), 0.333; with Etoposide + Dasatinib (first compound 0.01 µM), 0.861. In addition, the relative viability in the assay with Etoposide + Dasatinib (first compound 0.03162 µM) stood at 0.883; with Etoposide + Dasatinib (first compound 0.1 µM), 0.805; with Etoposide + Dasatinib (first compound 0.3162 µM) it was 0.895; in the assay with Etoposide + Dasatinib (first compound 1 µM), 0.874.
Regarding A549, the relative viability was found to be 0.25 with Bleomycin + Olaparib (first compound 0.01 µM); 0.263 with Bleomycin + Olaparib (first compound 0.03162 µM); 0.29 with Bleomycin + Olaparib (first compound 0.1 µM); 0.0728 in the assay with Bleomycin + Olaparib (first compound 0.3162 µM); 0.0649 with Bleomycin + Olaparib (first compound 1 µM); 0.4 with Bleomycin + Pictilisib (first compound 0.01 µM). Moreover, the relative viability worked out at 0.389 with Bleomycin + Pictilisib (first compound 0.03162 µM), 0.323 in the assay with Bleomycin + Pictilisib (first compound 0.1 µM), 0.0899 with Bleomycin + Pictilisib (first compound 0.3162 µM) and 0.0479 with Bleomycin + Pictilisib (first compound 1 µM).
In the case of NCI-H1944, the relative viability is 0.259 with Bleomycin + Olaparib (first compound 0.01 µM); 0.252 with Bleomycin + Olaparib (first compound 0.03162 µM); 0.264 with Bleomycin + Olaparib (first compound 0.1 µM); 0.18 with Bleomycin + Olaparib (first compound 0.3162 µM); 0.151 with Bleomycin + Olaparib (first compound 1 µM); 0.213 in the assay with Etoposide + Dasatinib (first compound 0.01 µM). In addition, the relative viability with Etoposide + Dasatinib (first compound 0.03162 µM) was 0.23; with Etoposide + Dasatinib (first compound 0.1 µM), 0.159; with Etoposide + Dasatinib (first compound 0.3162 µM) it was 0.189; with Etoposide + Dasatinib (first compound 1 µM), 0.102; in the assay with Bleomycin + Pictilisib (first compound 0.01 µM), 0.284; with Bleomycin + Pictilisib (first compound 0.03162 µM) it was 0.282. Further, the values for the relative viability in the assay with Bleomycin + Pictilisib (first compound 0.1 µM), with Bleomycin + Pictilisib (first compound 0.3162 µM) and in the assay with Bleomycin + Pictilisib (first compound 1 µM) were 0.271, 0.204 and 0.184, respectively.
With NCI-H1648, the relative viability with Bleomycin + Olaparib (first compound 0.01 µM) came out at 0.757; with Bleomycin + Olaparib (first compound 0.03162 µM), 0.571; with Bleomycin + Olaparib (first compound 0.1 µM), 0.443; in the assay with Bleomycin + Olaparib (first compound 0.3162 µM), 0.267; with Bleomycin + Olaparib (first compound 1 µM), 0.357.
For the cell line IA-LM, the relative viability with Bleomycin + Bortezomib (first compound 0.01 µM) turned out to be 0.493; with Bleomycin + Bortezomib (first compound 0.03162 µM), 0.746; in the assay with Bleomycin + Bortezomib (first compound 0.1 µM), 0.676; with Bleomycin + Bortezomib (first compound 0.3162 µM), 0.339; with Bleomycin + Bortezomib (first compound 1 µM) it was 0.269; in the assay with Bleomycin + Olaparib (first compound 0.01 µM), 0.681. The relative viability is 0.629 in the assay with Bleomycin + Olaparib (first compound 0.03162 µM); 0.716 in the assay with Bleomycin + Olaparib (first compound 0.1 µM); 0.474 in the assay with Bleomycin + Olaparib (first compound 0.3162 µM); 0.328 with Bleomycin + Olaparib (first compound 1 µM); 0.331 with Bleomycin + Pictilisib (first compound 0.01 µM); 0.29 with Bleomycin + Pictilisib (first compound 0.03162 µM). The results for the relative viability with Bleomycin + Pictilisib (first compound 0.1 µM), with Bleomycin + Pictilisib (first compound 0.3162 µM) and with Bleomycin + Pictilisib (first compound 1 µM) were 0.356, 0.211 and 0.215, respectively.
Consider LK-2, for which the relative viability with Bleomycin + Olaparib (first compound 0.01 µM) amounted to 0.369; with Bleomycin + Olaparib (first compound 0.03162 µM), 0.451; with Bleomycin + Olaparib (first compound 0.1 µM), 0.279; with Bleomycin + Olaparib (first compound 0.3162 µM), 0.163; in the assay with Bleomycin + Olaparib (first compound 1 µM), 0.165; with Etoposide + Dasatinib (first compound 0.01 µM), 0.248. Further, the relative viability with Etoposide + Dasatinib (first compound 0.03162 µM) was 0.297; with Etoposide + Dasatinib (first compound 0.1 µM), 0.275; in the assay with Etoposide + Dasatinib (first compound 0.3162 µM) it was 0.301; in the assay with Etoposide + Dasatinib (first compound 1 µM), 0.181; with Bleomycin + Pictilisib (first compound 0.01 µM), 0.517; in the assay with Bleomycin + Pictilisib (first compound 0.03162 µM), 0.489. In addition, the relative viability in the assay with Bleomycin + Pictilisib (first compound 0.1 µM) amounted to 0.437; with Bleomycin + Pictilisib (first compound 0.3162 µM), 0.287; in the assay with Bleomycin + Pictilisib (first compound 1 µM), 0.278.
As for HCC-44, the relative viability with Bleomycin + Bortezomib (first compound 0.01 µM) is 0.544; in the assay with Bleomycin + Bortezomib (first compound 0.03162 µM) it was 0.333; with Bleomycin + Bortezomib (first compound 0.1 µM) it was 0.225; with Bleomycin + Bortezomib (first compound 0.3162 µM) it was 0.153; with Bleomycin + Bortezomib (first compound 1 µM), 0.145; with Bleomycin + Olaparib (first compound 0.01 µM), 0.84. In addition, the relative viability with Bleomycin + Olaparib (first compound 0.03162 µM) came out at 0.739; with Bleomycin + Olaparib (first compound 0.1 µM), 0.657; with Bleomycin + Olaparib (first compound 0.3162 µM) it was 0.415; with Bleomycin + Olaparib (first compound 1 µM), 0.401; with Bleomycin + Pictilisib (first compound 0.01 µM), 0.385; with Bleomycin + Pictilisib (first compound 0.03162 µM) it was 0.477. Also, the relative viability worked out at 0.271 with Bleomycin + Pictilisib (first compound 0.1 µM), 0.211 in the assay with Bleomycin + Pictilisib (first compound 0.3162 µM) and 0.246 with Bleomycin + Pictilisib (first compound 1 µM).

For the origin of these results see the supplement of paper PMC10307832.
